Laboratory results reported in patent US8729034B2, “Pharmaceutical composition having virucidal and spermicidal activity” (priority 2007, dated 2014).
Entries after “also recorded” stand apart in the source; their conditions may differ.

Experiments:
[1] = tested on: human spermatozoa; experiment: Membrane lipid peroxidation, MDA by thiobarbituric acid (TBA) test; type: cell-based; details: Ac-B 10-120 microgram per ml, 20 seconds
Procedure: Membrane lipid peroxidation was estimated by the end point generation of malondialdehyde (MDA) determined by the thiobarbituric acid (TBA) test.
Suspension of human spermatozoa was prepared using the swim up technique, as described above. A series of dilutions (10, 20, 40, 60, 80, 100 and 120 microgram per ml) of Ac-B was prepared in BWW medium. From each test (Ac-B) solution, 800 microliters was taken out and mixed with 200 microliters of sperm suspension with a gentle vortex for 10 seconds. After 20 seconds of mixing, the treated spermatozoa were separated from the suspending medium by centrifugation. The pellet of washed spermatozoa was resuspended in physiological saline. A control set of untreated sperm was treated similarly. Membrane lipid peroxidation was estimated by the end point generation of malondialdehyde (MDA), determined by the thiobarbituric acid (TBA) test.
Briefly, diluted spermatozoa with or without treatment (250×10^6 cells in 1 ml) were mixed with 1 ml of cold 20% (wt/vol) trichloroacetic acid (TCA) to precipitate protein. The precipitate was pelleted by centrifugation (2000 rpm for 10 minutes), and 1 ml of the supernatant was incubated with 1 ml of 0.67% (wt/vol) TBA in a boiling water bath at 100 degree C. for 30 minutes. After cooling, the absorbance was determined by a spectrophotometer (UNICAM PU 8610 Kinetics spectrophotometer; Philips, Holland) at 535 nm.

[2] = tested on: NL4.3 virus; experiment: Anti-HIV activity in P4 (Hela-CD4-LTR-β Gal) cells (p24 ELISA, X-gal staining); type: cell-based, HIV-1; details: for Percentage inhibition of hiv growth in p4 cell line, Without Pretreatment: untreated virus; for Inhibition of viral transmission, Ac-B-treated virus: subsequent culture with or without Ac-B
Procedure: (§1) P4 (Hela-CD4-LTR-β Gal) cells were infected with 0.05 MOI of NL4.3 virus pretreated without or with Ac-B at varying concentrations (1 hour at 37 degree C.) followed by incubation for 48 hours in the presence or absence of Ac-B at a concentration of 0.5 to 2.5 microgram per ml. Virus production was analyzed by ELISA of p24 antigen in the culture supernatant. Viral transmission in the transfected cells was evaluated by X-gal staining, in which an antiretroviral therapeutic drug, Azidothymidine (AZT) was used as positive control.

[3] = tested on: female rabbits; experiment: Contraceptive efficacy following intravaginal application in rabbits; type: in vivo, New Zealand Rabbits; details: intra-vaginal
Procedure: Healthy virgin, nulliparous female rabbits were primed with PMSG (200 i.u.; i.p.; 96 hrs prior to testing) to induce ovulation. Serial dilutions (2.5 mg/ml, 10 mg/ml, 25 mg/ml and 50 mg/ml) of Ac-B in KY-jelly was prepared to be used as test solutions and only KY-jelly was used for control group. Two ml of test/control solution was introduced 6-8 cm deep into the vagina of each rabbit with by the syringe with gavaging needle. The animal was held in supine position for about five minutes and then hand-mated by the selected proven bucks. The buck was allowed one-time mating. To ensure ovulation 100 i.u. of hCG was administered through the marginal ear vein of each participating doe. The vaginal lavage of the mated doe was examined under a microscope. The presence of spermatozoa in the lavage was considered as confirmed mating. The mated does were kept in separate cages to complete their gestation period and the number of delivered pups was recorded. The mean value of the pups was calculated to determine the contraceptive potential.

[4] = tested on: human sperm; experiment: Modified Kremer-Test, cervical mucus penetration (Experiment B); type: cell-based; details: treated at MEC; 30 minutes at 37 degree C
Text: A modified Kremer-Test was used for assessment of cervical mucus penetrating capacity of treated sperm. A drop of human mid-cycle cervical mucus was placed on a slide and flattened by a cover slip (22 mm×22 mm). A drop of human sperm suspension treated with the test compounds (at MEC) was deposited at the side of the cover slip and in contact with the edge, the sperm suspension moved in under the cover slip by capillary force and a clear interface was obtained between the sperm suspension and the cervical mucus. The slide preparation was placed within a CO2 incubator at 37 degree C. for 30 minutes. Suitable control sets were prepared side by side. Each preparation was examined under a phase contrast microscope to observe the entry of spermatozoa into the cervical mucus zone.

[5] = tested on: HIV; experiment: Inactivation of HIV in vitro (summary statements); type: cell-based
Procedure: Human CD4+ T cell line CEM-GFP cells were infected with HIV-1 NL-4.3 virus pretreated without or with Ac-B at varying concentrations (1 hour at 37 degree C.) at a multiplicity of infection (MOI) of 0.01. The cells were then cultured in the presence or absence of Ac-B for up to 7 days post infection. Virus production was analyzed in the culture supernatant on day-7 post infection by p24 antigen capture ELISA
as §1

Substance: Acaciaside-B [Ac-B]
- Production of malondialdehyde (MDA) [1]: increase in the production of MDA; also recorded: dose-dependent increased generation of malondialdehyde (MDA)
- Percentage inhibition of hiv growth in p4 cell line, Without Pretreatment ([2]; Ac-B 0.5 microgram per ml, 48 hours): 0%
- Percentage inhibition of hiv growth in p4 cell line, Pretreatment with Ac-B ([2]; Ac-B 0.5 microgram per ml, virus pretreated 1 hour at 37 degree C, 48 hours): 76.53%
- Anti-HIV activity by X-gal staining, compared with AZT ([2]; Ac-B 1.0 microgram per ml (0.005 micromoles) vs AZT at 2 micromole): comparable to or greater than that induced by AZT
- Percentage inhibition of hiv growth in p4 cell line, Without Pretreatment ([2]; Ac-B 1 microgram per ml): 0%
- Percentage inhibition of hiv growth in p4 cell line, Pretreatment with Ac-B ([2]; Ac-B 1 microgram per ml, virus pretreated): 95.86%
- Percentage inhibition of hiv growth in p4 cell line, Without Pretreatment ([2]; Ac-B 2 microgram per ml): 0%
- Percentage inhibition of hiv growth in p4 cell line, Pretreatment with Ac-B ([2]; Ac-B 2 microgram per ml, virus pretreated): 96%
- Percentage inhibition of hiv growth in p4 cell line, Without Pretreatment ([2]; Ac-B 2.5 microgram per ml): 0%
- Percentage inhibition of hiv growth in p4 cell line, Pretreatment with Ac-B ([2]; Ac-B 2.5 microgram per ml, virus pretreated): 95.53%
- Inhibition of viral transmission, Ac-B-treated virus ([2]; Ac-B greater than or equal to 1.5 microgram per ml): > 95%
- Inhibition of viral transmission, Ac-B-treated virus ([2]; Ac-B ≧1.0 mcg/ml): > 95%
- Inhibition of viral transmission, untreated virus ([2]; cells infected with untreated virus and cultured in the presence of Ac-B): no inhibition of viral transmission
- Mean numbers of pups delivered ([3]; 2 ml of 2.5 mg/ml Acaciaside-B in K-Y jelly (n = 5)): 3.4
- Mean numbers of pups delivered ([3]; 2 ml of 10 mg/ml Acaciaside-B in K-Y jelly (n = 5)): 2.2
- Mean numbers of pups delivered ([3]; 2 ml of 25 mg/ml Acaciaside-B in K-Y jelly (n = 5)): 0.2
- Mean numbers of pups delivered ([3]; 2 ml of 50 mg/ml Acaciaside-B in K-Y jelly (n = 5)): 0.0
- Entry of treated spermatozoa into human cervical mucus [4]: none of them crossed into the interface
- Dose level preventing HIV infection in vitro [5]: greater than or equal to 1.0 microgram per ml
